We go through 35 compounds from US20210277015A1, “OGA INHIBITOR COMPOUNDS” (Janssen Pharmaceutica NV, priority 2018, published 2021).

Structures are written as SMILES.

A word on the Emax: it is the greatest response seen or fitted, relative to the assay's reference.

This assay addresses T1, recombinant human Meningioma Expressed Antigen 5 (MGEA5), also referred to as O-GlcNAcase (OGA) (Homo sapiens, UniProt O60502).
T1 construct: Full length OGA enzyme was purchased at OriGene (cat #TP322411); purchased OriGene TP322411
T1 sequence (O60502 1-916): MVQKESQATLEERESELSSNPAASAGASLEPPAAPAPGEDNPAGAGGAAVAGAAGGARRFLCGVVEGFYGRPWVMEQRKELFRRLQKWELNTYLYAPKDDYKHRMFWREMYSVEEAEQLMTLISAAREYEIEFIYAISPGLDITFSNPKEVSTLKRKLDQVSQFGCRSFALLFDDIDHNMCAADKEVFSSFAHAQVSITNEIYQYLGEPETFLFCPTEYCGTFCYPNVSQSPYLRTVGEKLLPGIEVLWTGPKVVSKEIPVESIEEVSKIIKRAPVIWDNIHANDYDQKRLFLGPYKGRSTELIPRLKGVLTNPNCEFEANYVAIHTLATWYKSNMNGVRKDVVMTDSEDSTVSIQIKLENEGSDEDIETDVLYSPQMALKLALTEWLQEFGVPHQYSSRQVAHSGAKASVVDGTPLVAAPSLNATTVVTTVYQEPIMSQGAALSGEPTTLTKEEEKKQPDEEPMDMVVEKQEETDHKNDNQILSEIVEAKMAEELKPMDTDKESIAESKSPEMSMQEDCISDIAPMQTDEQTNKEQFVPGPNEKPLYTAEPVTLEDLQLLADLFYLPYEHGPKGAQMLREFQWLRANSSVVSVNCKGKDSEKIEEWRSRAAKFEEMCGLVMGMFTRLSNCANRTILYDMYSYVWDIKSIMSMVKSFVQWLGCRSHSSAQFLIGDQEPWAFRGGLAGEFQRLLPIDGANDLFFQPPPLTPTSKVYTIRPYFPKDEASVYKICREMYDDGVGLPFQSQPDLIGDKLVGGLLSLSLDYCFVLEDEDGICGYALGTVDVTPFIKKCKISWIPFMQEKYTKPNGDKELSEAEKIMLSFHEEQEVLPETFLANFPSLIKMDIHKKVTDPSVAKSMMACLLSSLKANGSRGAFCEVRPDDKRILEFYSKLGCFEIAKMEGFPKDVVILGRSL
The assay can be described thus: OGA biochemical assay (inhibition of FM-GlcNAc hydrolysis, fluorescence). The note with it: FM-GlcNAc substrate; for IC50: 6 h at room temperature, read-out: Enzymatic hOGA, pIC50 (converted); for Emax / Enzymatic Emax (%): maximal effect; for Emax: read-out: Enzymatic Emax (%). The text has this: The assay is based on the inhibition of the hydrolysis of fluorescein mono-β-D-N-Acetyl-Glucosamine (FM-GlcNAc) (Mariappa et al. 2015, Biochem J 470:255) by the recombinant human Meningioma Expressed Antigen 5 (MGEA5), also referred to as O-GlcNAcase (OGA). The hydrolysis FM-GlcNAc (Marker Gene technologies, cat #M1485) results in the formation of β-D-N-glucosamineacetate and fluorescein. The fluorescence of the latter can be measured at excitation wavelength 485 nm and emission wavelength 538 nm. An increase in enzyme activity results in an increase in fluorescence signal. Full length OGA enzyme was purchased at OriGene (cat #TP322411). The enzyme was stored in 25 mM Tris.HCl, pH 7.3, 100 mM glycine, 10% glycerol at −20° C. Thiamet G and GlcNAcStatin were tested as reference compounds (Yuzwa et al. 2008 Nature Chemical Biology 4:483; Yuzwa et al. 2012 Nature Chemical Biology 8:393). The assay was performed in 200 mM Citrate/phosphate buffer supplemented with 0.005% Tween-20. 35.6 g Na2HPO4 2 H2O (Sigma, #C0759) were dissolved in 1 L water to obtain a 200 mM solution. 19.2 g citric acid (Merck, #1.06580) was dissolved in 1 L water to obtain a 100 mM solution. pH of the sodium phosphate solution was adjusted with the citric acid solution to 7.2. The buffer to stop the reaction consists of a 500 mM Carbonate buffer, pH 11.0. 734 mg FM-GlcNAc were dissolved in 5.48 mL DMSO to obtain a 250 mM solution and was stored at −20° C. OGA was used at a 2 nM concentration and FM-GlcNAc at a 100 uM final concentration. Dilutions were prepared in assay buffer.
50 nl of a compound dissolved in DMSO was dispensed on Black Proxiplate™ 384 Plus Assay plates (Perkin Elmer, #6008269) and 3 μl fl-OGA enzyme mix added subsequently. Plates were pre-incubated for 60 min at room temperature and then 2 μl FM-GlcNAc substrate mix added. […] Plates were briefly centrifuged for 1 min at 1000 rpm and incubate at room temperature for 6 h. To stop the reaction 5 μl STOP buffer were added and plates centrifuge again 1 min at 1000 rpm. Fluorescence was quantified in the Thermo Scientific Fluoroskan Ascent or the PerkinElmer EnVision with excitation wavelength 485 nm and emission wavelength 538 nm.
For analysis a best-fit curve is fitted by a minimum sum of squares method. From this an IC50 value and Hill coefficient was obtained. High control (no inhibitor) and low control (saturating concentrations of standard inhibitor) were used to define the minimum and maximum values.

With `COc1cc(O[C@@H]2CCN(C(C)c3ccc4c(n3)OCCO4)C2)cc(C)n1` (mixture of isomers) [Product 76], the IC50 was 1580 nM and the Emax was found to be 84%.

Consider `COc1cc(CC2(C)CCN(C(C)c3ccc4c(n3)OCCO4)C2)cc(C)n1` (mixture of isomers) [Product 91], for which the IC50 is 158 nM and the Emax is 100%.

As for `Cc1cnc(C[C@H]2CCN(C(C)c3cc4c(cc3F)OCCO4)C2)c(C)n1` (mixture of isomers) [Product 96], the IC50 is 63.1 nM and the Emax was determined as 101%.

Regarding `Cc1cc(O[C@H]2CCN(C(C)c3ccc4c(n3)OCCO4)C2)cc(C)n1` (mixture of isomers) [Product 70], the IC50 is 1260 nM and the Emax amounted to 94%.

Turning to `Cc1cc(C[C@@H]2CCN(C(C)c3ccc4c(n3)OCCO4)C2)cc(C)n1` (mixture of isomers) [Product 78], the IC50 is 63.1 nM and the maximal response (Emax) is 101%.

On to `COc1cc(C[C@H]2CCN([C@H](C)c3cc4c(cc3F)NCCO4)C2)cc(C)n1` (racemic) [Product 81], for which the IC50 was 794 nM and the Emax turned out to be 92%.

Regarding `COc1cc(C[C@@H]2CCN(C(C)c3ccc4c(n3)OCCO4)C2)cc(C)n1` (mixture of isomers) [Product 89], the IC50 is 100 nM and the Emax was 100%.

For the compound `Cc1cc(C[C@H]2CCN([C@H](C)c3ccc4c(c3)OCC4)C2)cc(C)n1` (single isomer, unassigned) [Product 13], the IC50 is 1000 nM and the Emax was 91%.

`C[C@H](c1ccc2c(n1)OCCO2)N1CC[C@H](Cc2ncc(F)cc2F)C1` (single isomer, unassigned) [Product 22]: the IC50 was above 10000 nM and the Emax is 32%.

For the compound `CC(c1ccc2c(n1)OCCO2)N1CC[C@H](Cc2ncc(F)cc2F)C1` (single isomer, unassigned) [Product 23], the IC50 was 398 nM and the Emax was 97%.

As to `Cc1cnc(C[C@H]2CCN(C(C)c3ccc4c(n3)OCCO4)C2)c(C)n1` (single isomer, unassigned) [Product 25], the IC50 was 158 nM and the “Enzymatic Emax (%)” value is 100%.

On to `Cc1cnc(C[C@H]2CCN(C(C)c3ccc4c(n3)OCCO4)C2)c(C)n1` (single isomer, unassigned) [Product 26], for which the IC50 was above 10000 nM and the “Enzymatic Emax (%)” value is recorded as 35%.

As to `CC(c1cc2c(cc1F)OCCO2)N1CC[C@H](Cc2ncc(F)cc2F)C1` (single isomer, unassigned) [Product 28], the IC50 was 5010 nM and the “Enzymatic Emax (%)” value was 67%.

As for `COc1cc(O[C@H]2CCN(C(C)c3ccc4c(n3)OCCO4)C2)cc(C)n1` (single isomer, unassigned) [Product 64], the IC50 was 398 nM and the Emax was determined as 99%.

For `COc1cc(C[C@H]2CCN(C(C)c3nc4c(cc3F)CCO4)C2)cc(C)n1` (single isomer, unassigned) [Product 85], the IC50 is 200 nM and the “Enzymatic Emax (%)” value was 99%.

For the compound `COc1cc(C[C@H]2CCN(C(C)c3ccc4c(n3)OCCC4)C2)cc(C)n1` (single isomer, unassigned) [Product 87], the IC50 is 126 nM and the “Enzymatic Emax (%)” value is 99%.

`COc1cc(C[C@H]2CCN(C(C)c3ccc4c(n3)OCCC4)C2)cc(C)n1` (single isomer, unassigned) [Product 88]: the IC50 was above 10000 nM and the “Enzymatic Emax (%)” value worked out at 38%.

On to `COc1cc(C[C@]2(C)CCN([C@H](C)c3ccc4c(n3)OCCO4)C2)cc(C)n1` (single isomer, unassigned) [Product 92], for which the IC50 is 6310 nM and the Emax amounted to 63%.

As to `COc1cc(C[C@]2(C)CCN([C@@H](C)c3ccc4c(n3)OCCO4)C2)cc(C)n1` (single isomer, unassigned) [Product 93], the IC50 is 7940 nM and the maximal effect (Emax) is 55%.

For the compound `COc1cc(C[C@@]2(C)CCN([C@H](C)c3ccc4c(n3)OCCO4)C2)cc(C)n1` (single isomer, unassigned) [Product 94], the IC50 is 1000 nM and the Emax was 93%.

In the case of `Cc1cnc(C[C@H]2CCN(C(C)c3cc4c(cc3F)OCCO4)C2)c(C)n1` (single isomer, unassigned) [Product 97], the IC50 is above 10000 nM and the “Enzymatic Emax (%)” value amounted to 37%.

`Cc1cnc(C[C@H]2CCN(C(C)c3cc4c(cc3F)OCCO4)C2)c(C)n1` (single isomer, unassigned) [Product 98]: the IC50 was 31.6 nM and the “Enzymatic Emax (%)” value is on record as 103%.

As for `Cc1cc(C[C@H]2CCN(C(C)c3ccc4c(c3)OCCN4C)C2)cc(C)n1` (stereo partly shown) [Product 1], the IC50 was 2000 nM and the Emax was 85%.

On to `Cc1cc(C[C@H]2CCN(Cc3ccc4c(c3)OCCN4C)C2)cc(C)n1` [Product 2], for which the IC50 was 6170 nM and the Emax worked out at 61%.

Take `Cc1cc(C2CCN(C(C)c3ccc4c(n3)OCCO4)C2)cc(C)n1` (stereo not shown) [Product 3]: the IC50 is 501 nM and the Emax is 99%.

Turning to `COc1cc(C[C@H]2CCN(C(C)c3ccc4c(n3)OCCO4)C2)cc(C(F)(F)F)n1` (stereo partly shown) [Product 4], the IC50 is 100 nM and the Emax was found to be 103%.

`Cc1cc(C[C@H]2CCN(C(C)c3ccc4c(n3)OCCO4)C2)cc(C)n1` (stereo partly shown) [Product 12]: the IC50 is 158 nM and the Emax amounted to 101%.

On to `CC(c1ccc2c(n1)OCCO2)N1CC[C@H](Cc2ncc(F)cc2F)C1` (stereo partly shown) [Product 21], for which the IC50 is 631 nM and the Emax stood at 94%.

With `Cc1cnc(C[C@H]2CCN(C(C)c3ccc4c(n3)OCCO4)C2)c(C)n1` (stereo partly shown) [Product 24], the IC50 was 251 nM and the Emax amounted to 101%.

On to `CC(c1cc2c(cc1F)OCCO2)N1CC[C@H](Cc2ncc(F)cc2F)C1` (stereo partly shown) [Product 27], for which the IC50 is 126 nM and the Emax was 102%.

Turning to `Cc1cc(C[C@H]2CCN(C(C)c3cc4c(cc3F)OCCO4)C2)cc(C)n1` (stereo partly shown) [Product 30], the IC50 is 20 nM and the Emax was found to be 102%.

For the compound `Cc1cc(C[C@H]2CCN([C@H](C)c3cc4c(cc3F)OCCO4)C2)cc(C)n1` [Product 31], the IC50 was 631 nM and the Emax is 96%.

For `COc1cc(C[C@H]2CCN(C(C)c3cnc4c(c3)C(=O)N(C)CC4)C2)cc(C)n1` (stereo partly shown) [Product 33], the IC50 was 126 nM and the Emax was 102%.

As to `COc1cc(C[C@H]2CCN([C@H](C)c3cnc4c(c3)C(=O)N(C)CC4)C2)cc(C)n1` [Product 34], the IC50 is 7940 nM and the Emax came to 58%.

As to `COc1cc(C[C@@H]2CCN([C@H](C)c3cc4c(cc3F)OCCO4)C2)cc(C)n1` [Product 42], the IC50 was 1000 nM and the Emax turned out to be 93%.
